{"source": "paper PMC7169394", "about": "“Binding Constants of Substituted Benzoic Acids with Bovine Serum Albumin” (Pharmaceuticals, 2020)", "key": {"[1]": {"target": "bovine serum albumin (BSA) (Bos taurus, UniProt P02769)", "sequence (P02769 25-607)": "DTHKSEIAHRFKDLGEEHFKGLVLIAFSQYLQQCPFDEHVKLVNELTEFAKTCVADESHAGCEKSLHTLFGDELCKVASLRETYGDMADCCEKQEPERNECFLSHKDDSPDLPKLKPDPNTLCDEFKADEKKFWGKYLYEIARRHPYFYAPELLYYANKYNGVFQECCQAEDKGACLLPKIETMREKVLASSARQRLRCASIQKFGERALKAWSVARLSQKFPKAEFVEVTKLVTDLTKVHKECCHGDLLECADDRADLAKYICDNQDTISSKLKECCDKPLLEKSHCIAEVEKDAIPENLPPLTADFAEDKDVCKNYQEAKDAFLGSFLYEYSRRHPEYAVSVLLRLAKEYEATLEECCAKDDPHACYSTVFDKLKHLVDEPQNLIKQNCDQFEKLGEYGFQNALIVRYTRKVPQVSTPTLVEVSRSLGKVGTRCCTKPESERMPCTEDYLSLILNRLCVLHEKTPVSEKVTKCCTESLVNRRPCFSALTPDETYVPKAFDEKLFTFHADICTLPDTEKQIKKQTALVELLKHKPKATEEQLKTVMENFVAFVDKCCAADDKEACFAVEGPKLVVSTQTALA", "assay": "biochemical", "type": "binding"}, "[2]": {"tested_on": "BSA", "parameters": "method as in PMID 5677620", "conditions": "SP, 310 K; cited from earlier work"}, "[3]": {"tested_on": "BSA", "conditions": "UC, cited from earlier work"}, "[4]": {"tested_on": "BSA", "conditions": "SF, 298 K; cited from earlier work"}, "[5]": {"tested_on": "human serum albumin (HSA)", "conditions": "SF, 298 K; cited from earlier work"}, "[6]": {"tested_on": "BSA", "conditions": "CE, 298 K; cited from earlier work"}, "[7]": {"tested_on": "BSA", "parameters": "method as in PMID 27098963", "conditions": "ED, 310 K; cited from earlier work"}, "[8]": {"tested_on": "human serum albumin (HSA)", "parameters": "method as in PMID 3664856", "conditions": "UC, 288 K; cited from earlier work"}, "[9]": {"conditions": "298 K, phosphate buffer pH 7.4, 0.05 M, BSA about 1 µM, 1:1 model, standard state 1 M, […], read-out: K∙10^−4 (binding constant with BSA, final corrected value) (converted)"}, "[10]": {"conditions": "298 K, phosphate buffer pH 7.4, 0.05 M, BSA about 1 µM, 1:1 model, standard state 1 M, value is K multiplied by 10^−4, read-out: K∙10^−4 (binding constant with BSA, final corrected value) (converted)"}}, "note": "Where two headings read alike, the source gives them in different places."}
{"smiles": "O=C(O)c1cccc([N+](=O)[O-])c1", "note": "[3-nitrobenzoic acid]", "values": [{"measurement": "Kd", "setting": "[1]; [9]", "result": 12.8, "unit": "µM"}]}
{"smiles": "O=C(O)c1ccccc1[N+](=O)[O-]", "note": "[2-nitrobenzoic acid]", "values": [{"measurement": "Kd", "setting": "[1]", "result": 47.6, "unit": "µM"}]}
{"smiles": "Nc1ccccc1C(=O)O", "note": "[2-aminobenzoic acid]", "values": [{"measurement": "Kd", "setting": "[1]; [9]", "result": 43.5, "unit": "µM"}, {"measurement": "K·10^−4 BSA", "setting": "[2]", "result": "0.63 (SP, 310 K) [9]"}]}
{"smiles": "N#Cc1ccc(C(=O)O)cc1", "note": "[4-cyanobenzoic acid]", "values": [{"measurement": "K·10^−4 BSA", "setting": "[3]; 288 K", "result": "1.66 (UC, 288 K) [8]"}]}
{"smiles": "O=C(O)c1cccc(O)c1", "note": "[3-hydroxybenzoic acid]", "values": [{"measurement": "Kd", "setting": "[1]", "result": 52.6, "unit": "µM"}, {"measurement": "K·10^−4 BSA", "setting": "[4]", "result": 0.85}, {"measurement": "K·10^−4 BSA", "setting": "[2]", "result": 5.01}, {"measurement": "K·10^−4 HSA", "setting": "[5]", "result": "0.34 (SF) [10]"}]}
{"smiles": "O=C(O)c1ccccc1O", "note": "[2-hydroxybenzoic acid]", "values": [{"measurement": "K·10^−4 BSA", "setting": "[4]", "result": 7.38}, {"measurement": "K·10^−4 BSA", "setting": "[2]", "result": 10.0}, {"measurement": "K·10^−4 HSA", "setting": "[5]", "result": 190}, {"measurement": "K·10^−4 BSA", "setting": "[6]", "result": 3.92}]}
{"smiles": "O=C(O)c1cccc(Cl)c1", "note": "[3-chlorobenzoic acid]", "values": [{"measurement": "Kd", "setting": "[1]", "result": 17.2, "unit": "µM"}, {"measurement": "K·10^−4 BSA", "setting": "[7]", "result": "11.22 (ED, 310 K) [24]"}]}
{"smiles": "O=C(O)c1ccc(I)cc1", "note": "[4-iodobenzoic acid]", "values": [{"measurement": "Kd", "setting": "[1]; [10]", "result": 24.4, "unit": "µM"}]}
{"smiles": "O=C(O)c1ccccc1Br", "note": "[2-bromobenzoic acid]", "values": [{"measurement": "Kd", "setting": "[1]", "result": 43.5, "unit": "µM"}, {"measurement": "K·10^−4 BSA", "setting": "[3]; 310 K", "result": "3.98 (UC, 310 K) [9]"}]}
{"smiles": "O=C(O)c1ccc(Br)cc1", "note": "[4-bromobenzoic acid]", "values": [{"measurement": "Kd", "setting": "[1]; [10]", "result": 18.5, "unit": "µM"}, {"measurement": "K·10^−4 BSA", "setting": "[3]; 310 K", "result": 20.0}, {"measurement": "K·10^−4 BSA", "setting": "[7]", "result": 20.42}]}
{"smiles": "Cc1ccc(C(=O)O)cc1", "note": "[4-methylbenzoic acid]", "values": [{"measurement": "Kd", "setting": "[1]", "result": 71.4, "unit": "µM"}, {"measurement": "K·10^−4 BSA", "setting": "[4]", "result": "< 0.1"}, {"measurement": "K·10^−4 BSA", "setting": "[2]", "result": 7.94}, {"measurement": "K·10^−4 BSA", "setting": "[3]; 288 K", "result": 6.76}, {"measurement": "K·10^−4 BSA", "setting": "[7]", "result": 3.16}, {"measurement": "K·10^−4 HSA", "setting": "[5]", "result": 0.35}, {"measurement": "K·10^−4 HSA", "setting": "[8]", "result": 3.63}]}
{"smiles": "O=C(O)c1ccc(O)cc1", "note": "[4-hydroxybenzoic acid]", "values": [{"measurement": "Kd", "setting": "[1]", "result": "100 ± 10", "unit": "µM"}, {"measurement": "K·10^−4 BSA", "setting": "[4]", "result": "< 0.1"}, {"measurement": "K·10^−4 BSA", "setting": "[2]", "result": 0.79}, {"measurement": "K·10^−4 BSA", "setting": "[3]; 288 K", "result": 0.68}, {"measurement": "K·10^−4 HSA", "setting": "[5]", "result": "< 0.1"}, {"measurement": "K·10^−4 HSA", "setting": "[8]", "result": 0.45}]}
{"smiles": "O=C(O)c1ccccc1I", "note": "[2-iodobenzoic acid]", "values": [{"measurement": "Kd", "setting": "[1]; [10]", "result": 30.3, "unit": "µM"}]}
{"smiles": "O=C(O)c1ccccc1F", "note": "[2-fluorobenzoic acid]", "values": [{"measurement": "Kd", "setting": "[1]; [9]", "result": 30.3, "unit": "µM"}]}
{"smiles": "O=C(O)c1ccc(O)cc1O", "note": "[2,4-dihydroxybenzoic acid]", "values": [{"measurement": "Kd", "setting": "[1]", "result": 32.3, "unit": "µM"}, {"measurement": "K·10^−4 BSA", "setting": "[4]", "result": "<0.1 (SF) [11]"}, {"measurement": "K·10^−4 HSA", "setting": "[5]", "result": "0.16 (SF) [10]"}]}
{"smiles": "O=C(O)c1ccc([N+](=O)[O-])cc1", "note": "[4-nitrobenzoic acid]", "values": [{"measurement": "Kd", "setting": "[1]", "result": 12.3, "unit": "µM"}, {"measurement": "K·10^−4 BSA", "setting": "[3]; 288 K", "result": 6.03}, {"measurement": "K·10^−4 BSA", "setting": "[7]", "result": 3.09}, {"measurement": "K·10^−4 HSA", "setting": "[8]", "result": "8.13 (UC, 288 K) [8]"}]}
{"smiles": "O=C(O)c1cccc(I)c1", "note": "[3-iodobenzoic acid]", "values": [{"measurement": "Kd", "setting": "[1]; [10]", "result": 19.6, "unit": "µM"}]}
{"smiles": "N#Cc1cccc(C(=O)O)c1", "note": "[3-cyanobenzoic acid]", "values": [{"measurement": "Kd", "setting": "[1]", "result": 25.6, "unit": "µM"}]}
{"smiles": "Nc1cccc(C(=O)O)c1", "note": "[3-aminobenzoic acid]", "values": [{"measurement": "Kd", "setting": "[1]", "result": 71.4, "unit": "µM"}, {"measurement": "K·10^−4 BSA", "setting": "[2]", "result": "0.32 (SP, 310 K) [9]"}]}
{"smiles": "O=C(O)c1cccc(Br)c1", "note": "[3-bromobenzoic acid]", "values": [{"measurement": "Kd", "setting": "[1]; [10]", "result": 28.6, "unit": "µM"}, {"measurement": "K·10^−4 BSA", "setting": "[3]; 310 K", "result": "63.1 (UC, 310 K) [9]"}]}
{"smiles": "N#Cc1ccccc1C(=O)O", "note": "[2-cyanobenzoic acid]", "values": [{"measurement": "Kd", "setting": "[1]", "result": 38.5, "unit": "µM"}]}
{"smiles": "O=C(O)c1ccccc1", "note": "[benzoic acid]", "values": [{"measurement": "Kd", "setting": "[1]", "result": 52.6, "unit": "µM"}, {"measurement": "K·10^−4 BSA", "setting": "[2]", "result": 5.01}, {"measurement": "K·10^−4 BSA", "setting": "[3]; 288 K", "result": 2.24}, {"measurement": "K·10^−4 BSA", "setting": "[7]", "result": 1.15}, {"measurement": "K·10^−4 HSA", "setting": "[8]", "result": "2.29 (UC, 288 K) [8]"}]}
